As usually defined, the IC50 is the concentration that gives 50% inhibition. Low values mean greater potency in that assay, high ones weaker potency in that assay.

The target of experiment [1] is T1, IGF-1R (Homo sapiens, UniProt P08069). Put plainly: IGF-1 induced proliferation of A549 carcinoma cells (3H-thymidine). Type of experiment: cell-based. Further details: endogenous in cells; host or cells: A549. Here is the method: The proliferation induced by IGF-1 was measured in A549 carcinoma cells in the presence of peptides APG201; APG202 and APG204 and of IGF-1 (10 ng/ml-FIG. 8A) and (1 ng/ml-FIG. 8B) pursuant to the incorporated tritiated thymidine method. The cells were preincubated at 37° C. with the different peptides at different concentrations, namely 10^−7, 10^−6 and 10^−5M. The cells were then incubated with IGF-1 (10 ng/ml or 1 ng/ml) for 24 hours and contacted with ^3H-Thymidine for 24 hours, washed, and lysed. Radioactivity levels were measured with a scintillation counter.
Target sequence in this assay (P08069 31-736 limits assumed): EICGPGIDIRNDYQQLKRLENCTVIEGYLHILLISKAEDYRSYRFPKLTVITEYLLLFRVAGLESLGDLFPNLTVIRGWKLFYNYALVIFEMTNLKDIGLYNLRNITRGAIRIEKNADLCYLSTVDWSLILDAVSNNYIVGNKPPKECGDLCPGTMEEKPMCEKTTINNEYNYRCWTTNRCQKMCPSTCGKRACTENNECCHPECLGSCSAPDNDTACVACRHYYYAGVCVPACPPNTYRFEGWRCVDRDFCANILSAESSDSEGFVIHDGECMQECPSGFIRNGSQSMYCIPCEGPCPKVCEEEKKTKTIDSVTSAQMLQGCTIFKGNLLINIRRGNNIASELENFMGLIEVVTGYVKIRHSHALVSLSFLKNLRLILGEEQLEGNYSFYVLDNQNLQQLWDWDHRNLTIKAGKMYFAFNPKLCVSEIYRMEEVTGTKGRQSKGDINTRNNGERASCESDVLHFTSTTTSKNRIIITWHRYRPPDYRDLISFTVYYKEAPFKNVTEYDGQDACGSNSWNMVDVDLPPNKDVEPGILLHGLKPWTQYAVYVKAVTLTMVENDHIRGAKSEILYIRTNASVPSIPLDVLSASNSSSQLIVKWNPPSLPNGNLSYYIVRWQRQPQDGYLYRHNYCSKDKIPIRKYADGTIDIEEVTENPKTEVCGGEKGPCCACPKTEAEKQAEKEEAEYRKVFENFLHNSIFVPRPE
Target sequence in this assay (P08069 741-1367 limits assumed): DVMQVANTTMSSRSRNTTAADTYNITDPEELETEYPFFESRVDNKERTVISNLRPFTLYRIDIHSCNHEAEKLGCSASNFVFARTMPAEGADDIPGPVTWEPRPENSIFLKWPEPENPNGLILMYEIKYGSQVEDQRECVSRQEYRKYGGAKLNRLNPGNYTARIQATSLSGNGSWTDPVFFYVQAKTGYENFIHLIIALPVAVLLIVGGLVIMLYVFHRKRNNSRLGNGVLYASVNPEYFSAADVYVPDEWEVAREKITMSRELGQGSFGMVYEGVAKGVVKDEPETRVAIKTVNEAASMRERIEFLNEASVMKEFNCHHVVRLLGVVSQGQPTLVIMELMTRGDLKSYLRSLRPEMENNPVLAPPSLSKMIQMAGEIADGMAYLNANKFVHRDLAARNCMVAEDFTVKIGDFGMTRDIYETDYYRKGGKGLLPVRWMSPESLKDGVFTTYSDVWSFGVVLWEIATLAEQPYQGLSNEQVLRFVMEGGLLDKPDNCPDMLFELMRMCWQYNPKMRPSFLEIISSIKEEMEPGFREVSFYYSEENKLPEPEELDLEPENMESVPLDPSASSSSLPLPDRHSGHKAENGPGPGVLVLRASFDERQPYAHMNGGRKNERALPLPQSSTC

Experiment [2] deals with T1, IGF-1R. The experiment is described as follows: IGF-1 induced proliferation of MCF-7 breast carcinoma cells (3H-thymidine). Particulars: for Emax / inhibition: MCF7; for inhibition: read-out: efficacy, inhibition of MCF-7 proliferation. Further details: MCF-7 breast carcinoma cells; endogenous in cells; host or cells: MCF-7. Type of experiment: cell-based. Here is the method:
We also tested the effect IGF-1R antagonist peptides on IGF-1 induced proliferation in other cancer cell types (MCF-7 breast carcinoma cells, HepG2 hepatocarcinoma cells, and MDA-MB-231 breast adenocarcinoma cells). Different cancer cells were pre-incubated (45 min.) with different concentrations of peptides prior to stimulation with IGF-1 (50 ng/ml) (37° C.) for 24 hours; fetal calf serum was omitted 24 hours prior to stimulation with IGF-1 to avoid proliferative effects by other mitotic agents. ^3H-thymidine (1 μCi/ml) was then added for 24 hours, after which cells were washed three times with 5% cold TCA and lysed with 0.1N NaOH/0.1% Triton X-100. Radioactivity was measured with a scintillation counter. Experiments were repeated 3 times in duplicates (FIG. 15). […]
Target sequence in this assay (P08069 31-736 limits assumed): as the sequence (P08069 31-736 limits assumed) above
Target sequence in this assay (P08069 741-1367 limits assumed): as the sequence (P08069 741-1367 limits assumed) above

Experiment [3] addresses T1, IGF-1R. The experiment is described as follows: IGF-1 induced proliferation of MDA-MB-231 breast adenocarcinoma cells (3H-thymidine). Type of experiment: cell-based. Further details: MDA-MB-231 breast adenocarcinoma cells; endogenous in cells; host or cells: MDA-MB-231. Particulars: for EC50: read-out: EC50, in vitro cell proliferation assay; for Emax: MDA-MB-231, read-out: Emax, in vitro cell proliferation assay. Here is the method:
(§1) We also tested the effect IGF-1R antagonist peptides on IGF-1 induced proliferation in other cancer cell types (MCF-7 breast carcinoma cells, HepG2 hepatocarcinoma cells, and MDA-MB-231 breast adenocarcinoma cells). Different cancer cells were pre-incubated (45 min.) with different concentrations of peptides prior to stimulation with IGF-1 (50 ng/ml) (37° C.) for 24 hours; fetal calf serum was omitted 24 hours prior to stimulation with IGF-1 to avoid proliferative effects by other mitotic agents. ^3H-thymidine (1 μCi/ml) was then added for 24 hours, after which cells were washed three times with 5% cold TCA and lysed with 0.1N NaOH/0.1% Triton X-100. Radioactivity was measured with a scintillation counter. Experiments were repeated 3 times in duplicates (FIG. 15).
Target sequence in this assay (P08069 31-736 limits assumed): as the sequence (P08069 31-736 limits assumed) above
Target sequence in this assay (P08069 741-1367 limits assumed): as the sequence (P08069 741-1367 limits assumed) above

In experiment [4] the target is T2, IGF-1R (Rattus norvegicus, UniProt P24062).
T2 construct: from tissue; host or cells: aorta
T2 sequence (P24062 31-1370): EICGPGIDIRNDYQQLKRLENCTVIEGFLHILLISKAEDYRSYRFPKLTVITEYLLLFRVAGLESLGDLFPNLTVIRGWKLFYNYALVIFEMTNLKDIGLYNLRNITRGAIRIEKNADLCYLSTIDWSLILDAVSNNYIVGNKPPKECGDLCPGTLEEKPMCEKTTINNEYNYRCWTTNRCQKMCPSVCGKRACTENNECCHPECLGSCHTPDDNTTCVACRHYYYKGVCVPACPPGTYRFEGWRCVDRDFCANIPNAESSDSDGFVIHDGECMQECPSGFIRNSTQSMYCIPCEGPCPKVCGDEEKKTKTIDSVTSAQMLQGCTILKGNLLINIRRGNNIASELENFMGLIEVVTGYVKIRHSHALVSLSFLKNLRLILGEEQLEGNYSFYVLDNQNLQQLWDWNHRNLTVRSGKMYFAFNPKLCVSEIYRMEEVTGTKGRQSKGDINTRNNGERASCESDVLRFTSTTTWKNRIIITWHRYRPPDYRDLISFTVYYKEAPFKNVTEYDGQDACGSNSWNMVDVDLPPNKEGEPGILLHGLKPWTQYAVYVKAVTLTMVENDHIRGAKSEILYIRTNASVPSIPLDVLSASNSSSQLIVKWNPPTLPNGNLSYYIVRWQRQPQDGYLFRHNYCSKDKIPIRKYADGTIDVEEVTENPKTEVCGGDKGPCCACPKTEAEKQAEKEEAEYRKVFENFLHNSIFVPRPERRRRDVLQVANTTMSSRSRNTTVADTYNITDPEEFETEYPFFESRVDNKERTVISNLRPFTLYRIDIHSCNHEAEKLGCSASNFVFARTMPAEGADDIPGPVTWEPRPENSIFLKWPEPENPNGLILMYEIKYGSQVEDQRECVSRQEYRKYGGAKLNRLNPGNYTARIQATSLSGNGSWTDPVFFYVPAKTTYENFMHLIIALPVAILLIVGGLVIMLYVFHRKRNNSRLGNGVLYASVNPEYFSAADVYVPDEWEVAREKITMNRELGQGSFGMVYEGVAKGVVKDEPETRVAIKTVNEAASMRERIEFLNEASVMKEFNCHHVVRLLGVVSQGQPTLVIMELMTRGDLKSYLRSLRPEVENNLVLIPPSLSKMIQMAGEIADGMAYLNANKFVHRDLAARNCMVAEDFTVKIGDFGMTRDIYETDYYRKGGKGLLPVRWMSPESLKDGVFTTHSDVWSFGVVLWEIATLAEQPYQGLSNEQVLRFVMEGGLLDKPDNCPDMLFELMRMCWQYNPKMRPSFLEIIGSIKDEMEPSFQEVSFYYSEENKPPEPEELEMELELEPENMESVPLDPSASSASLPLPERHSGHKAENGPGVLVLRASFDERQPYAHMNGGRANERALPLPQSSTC
The experiment is described as follows: Ex vivo IGF-1-induced vasorelaxation of rat aorta. Particulars: IGF-1 25 ng/ml; phenylephrine pre-constriction; read-out: Emax, inhibition of ex vivo IGF-1-induced vasorelaxation of rat aorta. Here is the method:
Aortas were first incubated with different concentrations of peptides and phenylephrine to induce aorta constriction. IGF-1 (25 ng/ml) was then added to induce vasorelaxation. The results are expressed relative to a control aorta not incubated with the peptides. Vascular diameter was measured using a digital image analyzer. Vascular diameter was recorded before and after topical application of pre-constricting agent. After stabilization of the preparation, the ligand (IGF-1, 25 ng/ml) was added until stable vasodilation was detected. Peptides were subsequently added at different concentrations from 10^−8 to 10^−6 M. Reversal of vasodilatation was visualized and measured as described, for example, by Hou et al. (Am. J. Physiol. Regul. Integr. Comp. Physiol. 284:R928-R935 (2003)), Hou et al. (Stroke 31:516-524; discussion 525 (2000)), and Hou et al. (Am. J. Physiol. Regul. Integr. Comp. Physiol. 281:R391-R400 (2001)). Triplicate measurements were conducted on 2 animals.

The target of experiment [5] is T1, IGF-1R. Put plainly: IGF-1-induced proliferation of NIH3T3 cells transfected with human IGF-1R cDNA (3H-thymidine). Type of experiment: cell-based. Further details: expressed in transfected cells; host or cells: NIH3T3. The note with it: NIH3T3-IGF-1R cells; IGF-1 50 ng/ml. Here is the method:
Derivatives of APG-203 and APG-206 peptides were truncated to determine peptide regions important for activity. Peptides were assayed for efficacy and potency with an ^3H-thymidine incorporation assay. In short, the ^3H-thymidine incorporation proliferation assay was performed in NIH3T3 cells transfected with human IGF-1R cDNA in presence of IGF-1 50 ng/ml and different concentrations of peptides.
Target sequence in this assay (P08069 31-1367): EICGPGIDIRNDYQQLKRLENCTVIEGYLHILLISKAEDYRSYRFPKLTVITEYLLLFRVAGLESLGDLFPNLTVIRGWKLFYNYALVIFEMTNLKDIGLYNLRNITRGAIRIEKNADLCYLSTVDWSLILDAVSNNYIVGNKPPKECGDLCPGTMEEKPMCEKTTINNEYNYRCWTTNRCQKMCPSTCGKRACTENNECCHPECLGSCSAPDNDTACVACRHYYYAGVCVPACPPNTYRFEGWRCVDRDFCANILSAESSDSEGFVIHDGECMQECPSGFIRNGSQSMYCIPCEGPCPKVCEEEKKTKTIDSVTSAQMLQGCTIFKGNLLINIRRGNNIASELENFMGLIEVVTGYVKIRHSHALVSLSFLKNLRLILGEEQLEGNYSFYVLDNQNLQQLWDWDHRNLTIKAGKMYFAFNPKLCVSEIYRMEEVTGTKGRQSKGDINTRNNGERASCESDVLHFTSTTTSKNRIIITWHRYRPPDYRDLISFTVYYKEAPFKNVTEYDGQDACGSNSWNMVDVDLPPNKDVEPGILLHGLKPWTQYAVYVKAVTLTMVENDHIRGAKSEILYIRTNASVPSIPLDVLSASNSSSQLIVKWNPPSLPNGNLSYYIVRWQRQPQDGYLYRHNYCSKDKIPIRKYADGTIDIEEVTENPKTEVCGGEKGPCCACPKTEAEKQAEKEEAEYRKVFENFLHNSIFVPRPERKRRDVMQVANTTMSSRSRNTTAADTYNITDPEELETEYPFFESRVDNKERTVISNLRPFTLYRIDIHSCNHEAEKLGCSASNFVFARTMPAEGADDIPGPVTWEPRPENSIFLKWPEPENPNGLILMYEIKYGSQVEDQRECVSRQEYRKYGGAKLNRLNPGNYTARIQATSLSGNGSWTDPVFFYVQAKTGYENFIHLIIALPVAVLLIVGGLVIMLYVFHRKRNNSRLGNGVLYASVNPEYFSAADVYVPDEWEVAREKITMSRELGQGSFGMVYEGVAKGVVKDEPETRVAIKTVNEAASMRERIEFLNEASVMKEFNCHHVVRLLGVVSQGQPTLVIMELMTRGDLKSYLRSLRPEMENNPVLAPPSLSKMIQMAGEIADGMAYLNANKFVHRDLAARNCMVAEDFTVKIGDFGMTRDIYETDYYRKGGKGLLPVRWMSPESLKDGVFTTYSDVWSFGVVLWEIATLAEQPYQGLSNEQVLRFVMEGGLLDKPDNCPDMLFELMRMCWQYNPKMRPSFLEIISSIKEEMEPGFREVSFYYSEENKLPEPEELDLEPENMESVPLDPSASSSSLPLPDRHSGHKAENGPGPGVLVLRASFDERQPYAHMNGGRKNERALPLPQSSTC

Experiment [6] deals with T1, IGF-1R. The experiment is described as follows: IGF-1-induced tyrosine autophosphorylation of IGF-1R (Western Blot). Type of experiment: cell-based. The note with it: peptides 10^−6M, 45 min; IGF-1 50 ng/ml; read-out: inhibition of IGF-1-induced phosphorylation. Here is the method: Cells were incubated with anti-IGF-1R peptides (10^−6M) for 45 minutes and with IGF-1 at 50 ng/ml for either 15 minutes or 5 minutes. Western Blots (phosphorylated tyrosine antibody and IGF-1R antibody) were performed in non-denaturing conditions on total cell lysates (FIG. 17).
Target sequence in this assay (P08069 31-1367, species assumed): as the sequence (P08069 31-1367) above

Experiment [7] addresses T1, IGF-1R. Put plainly: IGF-1 induced proliferation of HepG2 hepatocarcinoma cells (3H-thymidine). Type of experiment: cell-based. Further details: HepG2 hepatocarcinoma cells; endogenous in cells; host or cells: HepG2. Particulars: for Emax: read-out: Emax, in vitro cell proliferation assay. Here is the method:
as §1
Target sequence in this assay (P08069 31-736 limits assumed): as the sequence (P08069 31-736 limits assumed) above
Target sequence in this assay (P08069 741-1367 limits assumed): as the sequence (P08069 741-1367 limits assumed) above

Another experiment has as its target T3, IL-1R/IL-1RacP (Homo sapiens, UniProt P14778+Q9NPH3).
T3 construct: TF-1 cells; endogenous in cells; host or cells: TF-1
T3 sequence (P14778 18-569): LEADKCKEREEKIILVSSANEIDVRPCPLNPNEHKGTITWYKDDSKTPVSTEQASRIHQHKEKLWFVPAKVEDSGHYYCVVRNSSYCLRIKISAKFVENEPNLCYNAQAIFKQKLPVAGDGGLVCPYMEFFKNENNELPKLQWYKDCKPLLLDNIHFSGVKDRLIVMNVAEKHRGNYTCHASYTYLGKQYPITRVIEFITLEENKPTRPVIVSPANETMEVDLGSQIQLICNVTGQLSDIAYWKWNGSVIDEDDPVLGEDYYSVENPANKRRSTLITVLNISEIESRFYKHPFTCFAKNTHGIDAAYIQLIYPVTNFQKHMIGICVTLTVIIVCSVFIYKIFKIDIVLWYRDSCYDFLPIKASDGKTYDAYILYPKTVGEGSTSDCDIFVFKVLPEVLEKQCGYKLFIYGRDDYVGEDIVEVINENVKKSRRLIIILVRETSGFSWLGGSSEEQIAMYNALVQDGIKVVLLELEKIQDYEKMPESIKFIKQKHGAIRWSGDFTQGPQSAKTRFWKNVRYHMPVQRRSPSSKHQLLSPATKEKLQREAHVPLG
T3 sequence (Q9NPH3 21-570): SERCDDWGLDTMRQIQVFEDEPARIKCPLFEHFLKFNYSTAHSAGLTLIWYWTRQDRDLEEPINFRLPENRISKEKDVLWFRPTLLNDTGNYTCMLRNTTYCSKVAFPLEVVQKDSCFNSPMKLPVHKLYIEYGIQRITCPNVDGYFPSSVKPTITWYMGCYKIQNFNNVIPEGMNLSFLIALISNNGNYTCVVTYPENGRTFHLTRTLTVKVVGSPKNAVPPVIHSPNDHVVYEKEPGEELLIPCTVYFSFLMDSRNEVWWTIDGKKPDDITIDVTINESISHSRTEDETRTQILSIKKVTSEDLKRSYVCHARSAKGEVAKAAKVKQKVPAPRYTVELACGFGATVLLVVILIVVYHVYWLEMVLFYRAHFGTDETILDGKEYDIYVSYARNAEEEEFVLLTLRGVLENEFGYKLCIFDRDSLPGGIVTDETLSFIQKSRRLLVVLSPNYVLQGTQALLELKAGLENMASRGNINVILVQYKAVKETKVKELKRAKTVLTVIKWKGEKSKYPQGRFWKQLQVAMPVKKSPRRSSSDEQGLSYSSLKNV
The experiment is described as follows: IL-1β-induced proliferation in TF-1 cells. Type of experiment: cell-based. Particulars: TF-1, Table 11; read-out: Emax (%), IL-1β-induced TF-1 proliferation.

[8] abbreviates: A549, IGF-1 10 ng/ml or 1 ng/ml.
Where [9] appears, read: MCF-7, IGF-1 50 ng/ml, read-out: Emax, in vitro cell proliferation assay.
The mark [10] stands for this setting: MCF-7 (breast cancer) cells, Table 5, read-out: Emax.

Where a SMILES comes first, the peptide text is derived from it. Where no end group is shown, it is not given here. [ ]: non-standard residue; d: D form. Bounds are passed on as bounds.

Take `CC(C)C[C@@H](NC(=O)[C@H](N)CO)C(=O)N[C@H](Cc1ccccc1)C(=O)N[C@@H](C(=O)N1CCC[C@@H]1C(=O)N[C@H](CCCNC(=N)N)C(=O)N1CCC[C@@H]1C(=O)N[C@H](CCC(=O)O)C(=O)N[C@H](CCCNC(=N)N)C(=O)N[C@H](CCCCN)C(=O)O)C(C)C` [APG-201] (H-[dS][dL][dF][dV][dP][dR][dP][dE][dR][dK]-OH; N-terminus and C-terminus assumed): the EC50 came out at 1000 nM on IGF-1R [1] and 0.1 nM on IGF-1R [3] (MB-MDA-231, IGF-1 50 ng/ml). Also, the IGF-1 induced proliferation result at IGF-1R [1] (setting [8]) is reported as “completely abrogated”. The Emax at IGF-1R [2] (setting [9]) stood at 20%; on IGF-1R [3] (MB-MDA-231, IGF-1 50 ng/ml), 100%. Moreover, the “potency in MDA-MB-231” value at IGF-1R [3] (ER insensitive cells) was “nanomolar potencies”.
Take `CC(C)C[C@@H](NC(=O)[C@H](NC(=O)[C@@H](CC(=O)O)NC(=O)[C@@H](CO)NC(=O)[C@H](N)CCC(=O)O)C(C)C)C(=O)N[C@H](Cc1c[nH]cn1)C(=O)N[C@H](Cc1ccccc1)C(=O)N[C@@H](C(=O)N[C@H](CO)C(=O)N[C@@H](C(=O)O)[C@H](C)O)[C@H](C)O` [APG-202] (H-[dE][dS][dD][dV][dL][dH][dF][dT][dS][dT]-OH; N-terminus and C-terminus assumed): at IGF-1R [1] (setting [8]), the IGF-1 induced proliferation entry is on record as “completely abrogated”. In addition, the EC50 on IGF-1R [1] (A549, IGF-1 10 ng/ml or 1 ng/ml, read-out: EC50, IGF-1 induced proliferation) stood at 10 nM. Further, the Emax at IGF-1R [2] (setting [9]) is 20%. Further, the “EC50, in vitro cell proliferation assay” value at IGF-1R [3] (MB-MDA-231, IGF-1 50 ng/ml) was “Not active”.
Consider ENFLHLLLA [APG-205], for which the Emax on IGF-1R [4] came out at 25%; on IGF-1R [2] (setting [9]), 60%; on IGF-1R [3] (MB-MDA-231, IGF-1 50 ng/ml), 100%. At IGF-1R [2] (IGF-1 50 ng/ml), the inhibition is at most 90%.
Take ERTVLSNL [APG-206.7]: the Emax at IGF-1R [5] was 100%; at IGF-1R [2] (setting [10]), 90%.
Turning to IRKYADGTI [APG-204], the Emax at IGF-1R [4] came to 25%; at IGF-1R [2] (setting [9]), 90%; at IGF-1R [3] (MB-MDA-231, IGF-1 50 ng/ml), 100%. Besides, the inhibition at 1 µM at IGF-1R [6] worked out at 30%. For the same compound, the inhibition on IGF-1R [2] (IGF-1 50 ng/ml) is at most 90%.
For KERTVISNLR [APG-206], the Emax came out at 75% on IGF-1R [4]; 100% on IGF-1R [7] (HepG2, IGF-1 50 ng/ml); 60% on IGF-1R [2] (setting [9]). At IGF-1R [6], the inhibition at 1 µM was above 70%. Besides, the inhibition on IGF-1R [2] (IGF-1 50 ng/ml) was at most 90%.
On to KERTVLS [APG-206.5, KERTVLS], for which the Emax turned out to be 75% on IGF-1R [5] and 100% at IGF-1R [2] (setting [10]).
With KYTPEL [API-101.133, KYTPEL], the Emax on IL-1R/IL-1RacP is below 10%.
On to RFVPELA [API-101.127, RFVPELA], for which, on IL-1R/IL-1RacP, the Emax was below 30%.
Regarding RTNASVPSI [APG-203], the Emax was determined as 50% on IGF-1R [4]; 100% on IGF-1R [7] (HepG2, IGF-1 50 ng/ml); 45% at IGF-1R [2] (setting [9]); 100% on IGF-1R [3] (MB-MDA-231, IGF-1 50 ng/ml). For the same compound, on IGF-1R [7], the “efficacy, inhibition of HepG2 proliferation” value turned out to be 50%. The EC50 at IGF-1R [7] (HepG2, IGF-1 50 ng/ml, read-out: EC50, in vitro cell proliferation assay) is below 0.1 nM; at IGF-1R [2] (IGF-1 50 ng/ml, read-out: potency, inhibition of MCF-7 proliferation) it was 0.1 to 60 nM; on IGF-1R [3] (MB-MDA-231, IGF-1 50 ng/ml), 0.1 nM. The inhibition on IGF-1R [2] (IGF-1 50 ng/ml) is at most 90%.
As to TVLSNL [APG-206.9, TVLSNL], on IGF-1R [5], the Emax was determined as 90% and the IC50 worked out at 20 nM.

For the origin of these results see patent US20110144014A1, “CYTOKINE RECEPTOR MODULATORS AND USES THEREOF” (CENTRE HOSPITALIER UNIVERSITAIRE SAINTE-JUSTINE, priority 2005, published 2011).
